Values after ≈ are worked out from the molar mass of the structure shown.
Columns and labels:
[1] = test system: Hep3B; test: MTS assay, Hep3B cell growth; format: cell-based; settings: Homo sapiens, 48 hours of incubation
Description: (§1) An acute myelogenous leukaemia (AML) cell line (KG1a) and a hepatocellular carcinoma (HCC) cell line (Hep3B) may be obtained from American Type of Culture Collection (ATCC). The AML cell line may be maintained in RPMI 1640 (JRH Biosciences) supplemented with 10% of heat inactivated fetal bovine serum (Hyclone), together with antibiotics including penicillin and streptomycin. The Hep3B HCC cell line may be maintained in DMEM with 10% of heat inactivated fetal bovine serum (Hyclone), together with antibiotics including penicillin and streptomycin. Cells may be allowed to grow in a humidified cell culture incubator kept at 5% carbon dioxide.
(§2) The effect of the synthesized cantharimides on the growth of the cell lines described above was investigated in vitro using a standard MTS ([3-(4,5-dimethylthiazol-2-yl)-5-(3-carboxymethoxyphen-yl)-2-(4-sulfophenyl)-2H-tetrazolium]) assay. Changes in the cellular viability of cell that include Hep3B and SKHep-1 with cantharidin analogues were monitored using the MTS activity assay. In particular, 1×10^4 hepatoma carcinoma cells (SK-Hep-1) were seeded at day 0. For the MTS assay, the medium was changed after 24 hours, and various compounds were then added at different concentrations. For bone marrow cells, compounds were added at the same day as the seeding. After 48 hours of incubation, the medium was removed, and MTS/PMS solution was added. The added medium was incubated for exactly 30 minutes. Subsequently, optical absorbance was determined at 490 nm using an optical absorbance detector (available from Promega).
More than 30 cantharimides were screened for their effects on cell proliferation and potential cytotoxicity in the two cell lines of Hep3B and SKHep-1. The activities of cantharimide were monitored in the presence of dicantharidic (a commercially available cantharidin-mimic) as a reference control.

[2] = test system: leukemia cell line KG1a; test: MTS assay, leukemia cell line KG1a; format: cell-based; settings: for IC50: Homo sapiens, KG-1a, concentration necessary for 50% of MTS reduction ability vs control, read-out: MTS50 activity
Description: as §1, §2
The cytotoxic activity of cantharimide of formula (3) using a leukemia cell line KG1a was investigated by means of a MTS assay. The MTS50 activity was measured as the concentration necessary for 50% of MTS reduction ability by the chemical treated cell as compared with the control. […] On the other hand, cantharimide gave a value of about 5 µg/ml for MTS50 activity against the same cancer cell line.

[3] = test system: non-malignant haematological disorder bone marrow cells; test: MTS assay, primary culture of bone marrow cells; format: cell-based, human; design: toxicity to bone marrow cells: dose or concentration left out as unconfirmed
Description: (§3) Non-malignant hematological disorder bone marrow cells may be collected by a bone marrow aspirate method from consented patients from clinical wards of Prince of Wales Hospital (Hong Kong, China), according to the regulation of the Hospital. Immediately after collection, mononuclear cells may be enriched by Ficoll Plaque (available from General Electricity) gradient centrifugation. Cells may be washed twice by phosphate buffered saline and resuspended in complete medium. Viable cell percentage may then be estimated by trypan blue exclusion assay and counted using a haemacytometer.
as §2, with “After 48 hours of incubation, the medium was removed, and MTS/PMS solution was added. The added medium was incubated for exactly 30 minutes.” left out

[4] = test system: KG1a AML cell line; test: Morphology assay, KG1a AML cell line; format: cell-based; design: dose or concentration left out as unconfirmed; settings: 48 hours incubation
Description: as §1
(§4) The morphological effect of cytotoxic action of cantharidic acid and cantharimide on leukemia cells are depicted in FIGS. 1A to 1F. The untreated non-malignant haematological disorder bone marrow and KG1a AML cell lines are depicted in FIGS. 1A and 1D, respectively. The non-malignant haematological disorder bone marrow and KG1a AML cell lines treated with 5 µg/mL of dicantharidic acid are depicted in FIGS. 1B and 1E, respectively. The non-malignant haematological disorder bone marrow and KG1a AML cell lines treated with 5 µg/mL of cantharimide are depicted in FIGS. 1C and 1F, respectively.

[5] = test system: non-malignant haematological disorder bone marrow; test: Morphology assay, bone marrow; format: cell-based, human; settings: 48 hours incubation
Description: as §3
The toxicity on non-malignant haematological bone marrow sample was tested to evaluate the side effects of cantharidin, which included bone marrow suppression, and gastrointestinal and urinary tract toxicity.
as §4

[6] = Solubility; format: physicochemical

Structure (SMILES): C[C@@]12C(=O)N(c3nc4ccc(C(=O)O)cc4s3)C(=O)[C@]1(C)[C@H]1CC[C@@H]2O1 [Entry 7]
- IC50 [1]: ~5 µg/mL (≈ 13.4 µM)
- IC50 [2]: ~5 µg/mL (≈ 13.4 µM)
- cytotoxic activity to normal bone marrow cells [3]: lack of cytotoxic activity
- morphological effect on leukemia cells [4]: induced loss of colony formation potential and cell shrinkage
- morphological effect on bone marrow cells [5]: colony formation remained unchanged
- solubility ([6]; DMSO, organic solvent or mixture): 250 mg/mL (≈ 671000 µM)
- Solubility in water [6]: Good

Structure (SMILES): C[C@@]12C(=O)N(c3nc4ccc(OC(F)(F)F)cc4s3)C(=O)[C@]1(C)[C@H]1CC[C@@H]2O1 [Entry 4]
- IC50 [1]: ~10 µg/mL (≈ 24.2 µM)
- Solubility in water [6]: Fair

Structure (SMILES): C[C@@]12C(=O)N(c3nc4ccc(C(F)(F)F)cc4s3)C(=O)[C@]1(C)[C@H]1CC[C@@H]2O1 [Entry 5]
- IC50 [1]: ~5 µg/mL (≈ 12.6 µM)
- Solubility in water [6]: Fair

Structure (SMILES): COc1ccc2nc(N3C(=O)[C@@]4(C)[C@@H]5CC[C@@H](O5)[C@@]4(C)C3=O)sc2c1 [Entry 3]
- IC50 [1]: ~5 µg/mL (≈ 14 µM)
- Solubility in water [6]: Poor

Structure (SMILES): CC1(C(=O)O)C2CCC(O2)C1(C)C(=O)O (stereo not shown) [dicantharidic acid, reference compound]
- IC50 [2]: ~0.5 µg/mL (≈ 2.33 µM)
- activity to the cancer cell line compared to cantharimide ([2]; MTS50): 10 fold
- toxicity to bone marrow cells ([3]; concentration down to 0.15625, 48 hours of incubation): extremely toxic
- morphological effect on leukemia cells [4]: induced loss of colony formation potential and cell shrinkage
- morphological effect on bone marrow cells [5]: induced a similar loss

Structure (SMILES): C[C@@]12C(=O)N(c3nc4ccc(F)cc4s3)C(=O)[C@]1(C)[C@H]1CC[C@@H]2O1 [Entry 6]
- IC50 [1]: ~5 µg/mL (≈ 14.4 µM)
- Solubility in water [6]: Poor

Structure (SMILES): CCCCOC(=O)c1ccc2nc(N3C(=O)[C@@]4(C)[C@@H]5CC[C@@H](O5)[C@@]4(C)C3=O)sc2c1 [Entry 9]
- Solubility in water [6]: Good

Structure (SMILES): COC(=O)c1ccc2nc(N3C(=O)[C@@]4(C)[C@@H]5CC[C@@H](O5)[C@@]4(C)C3=O)sc2c1 [Entry 8]
- Solubility in water [6]: Good

Structure (SMILES): Cc1ccc2nc(N3C(=O)[C@@]4(C)[C@@H]5CC[C@@H](O5)[C@@]4(C)C3=O)sc2c1 [Entry 2]
- IC50 [1]: ~20 µg/mL (≈ 58.4 µM)
- Solubility in water [6]: Poor

Structure (SMILES): C[C@]1(C(=O)O)[C@@H]2CC[C@@H](O2)[C@@]1(C)C(=O)O [Entry 11, reference compound]
- IC50 [1]: ~0.25 µg/mL (≈ 1.17 µM)
- Solubility in water [6]: Excellent

Structure (SMILES): C[C@@]12C(=O)N(c3nc4ccccc4s3)C(=O)[C@]1(C)[C@H]1CC[C@@H]2O1 [Entry 1]
- IC50 [1]: ~6 µg/mL (≈ 18.3 µM)
- Solubility in water [6]: Poor
